Laboratory results taken from PMC10487970, “Exploring the Impact of Head Group Modifications on the Anticancer Activities of Fatty-Acid-like Platinum(IV) Prodrugs: A Structure–Activity Relationship Study” (International Journal of Molecular Sciences, 2023).

How the values were obtained:
[1] = system: A2780cis ovarian cancer cells; test: MTT cytotoxicity assay, A2780cis; format: cell-based, human; conditions: 24 h treatment, cisplatin-resistant A2780cis
Procedure: (§1) Cytotoxicity profiles of FALP derivatives with various head groups . The in vitro anticancer activity of the Pt(IV) prodrugs (1–9) was assessed using the 3-(4,5-dimethylthiazol-2-yl)-2,5-diphenyltetrazolium bromide (MTT) assay. This study utilized two human cancer cell lines, namely A2780cis and MDA-MB-231. A2780cis is an ovarian cancer cell line known for its resistance to conventional platinum chemotherapy, making it a formidable challenge to treat. On the other hand, MDA-MB-231 represents a triple-negative breast cancer cell line, which is currently recognized as one of the difficult-to-treat cancer types. The cells were treated with 1–9 or cisplatin for 24 h, and the cell viability was evaluated. The IC50 values, which represent the concentration of the drug required to inhibit the growth of cells by 50%, are reported in the table in Figure 1B. […] Overall, the head group modifications of FALPs result in an alternation of therapeutic effects, which is a promising way to fine-tune the anticancer activity of this class of metallodrugs.
(§2) Cell culture. A2780cis cell lines were purchased from Sigma-Aldrich and cultured in RPMI 1640 with L-glutamine (Corning, New York, NY, USA) supplemented with 10% FBS (Atlanta Biologicals, USA) and 1% penicillin-streptomycin (Corning). The MDA-MB-231 cell line was obtained via American Type Culture Collection, and cultured in DMEM 1 g/L glucose, with L-glutamine and sodium pyruvate (Corning) supplemented with 10% FBS and 1% penicillin-streptomycin (Corning). All cell lines were cultured at 37 °C under an atmosphere containing 5% CO2. Cells were passaged upon reaching 80–90% confluence via trypsinization and split in a 1:5 ratio.
(§3) MTT assays. Cytotoxicity profiles of compounds 1–9 and cisplatin against different cell lines (A2780cis and MDA-MB-231) were evaluated using the MTT assays. A volume of 100 μL of a RPMI or DMEM containing 8 × 10^4 cells/mL was seeded in 96-well plates. The plates were incubated for 24 h at 37 °C with 5% CO2 to allow for adherence of cells. A volume of 50 μL of RPMI or DMEM with various concentrations of cisplatin or compounds 1–9 were added to each well of the microplates. The Pt concentrations were determined via GFAAS. After 24 h, a volume of 30 μL of MTT (5.0 mg/mL in PBS, Alfa Aesar, Haverhill, MA, USA) was added to each well of the microplates. After 24 h, the medium was aspirated, and 200 μL of DMSO was added to each well. The plates were shaken gently on a shaker at r.t. for 10 min. Then, the absorbance of purple formazan was recorded at 562 nm with a BioTek ELx800 plate reader. IC50 values were determined using Origin software v7.0. All experiments were performed in triplicate.

[2] = system: MDA-MB-231 breast cancer cells; test: MTT cytotoxicity assay, MDA-MB-231; format: cell-based, human; conditions: 24 h treatment, triple-negative MDA-MB-231
Procedure: as §1, §2, §3

[3] = system: mitochondrial ROS in A2780cis cells; test: Flow cytometric analysis of MitoSOX (mitochondrial ROS); format: cell-based, human; conditions: [Pt] = 10 μM, 24 h, control 41.1%
Procedure: (§4) Cellular Responses of FALP derivatives with head groups of different hydrophobicity. Based on the observation that hydrophilic head group modifications lead to increased intracellular Pt levels, we formulated the hypothesis that such modifications would result in greater mitochondrial and DNA damage, as well as increased apoptosis. MitoSOX was utilized to assess the levels of mitochondrial ROS, while the γH2AX levels were analyzed to determine DNA damage. As mitochondrial and DNA damage are known to promote apoptosis, Annexin V/PI assays were also conducted to examine the apoptotic effects. A flow cytometric analysis was used to evaluate the mitochondrial ROS, γH2AX, and apoptosis in the cancer cells treated with FALPs (2 and 7) in the experiments. […] Based on the results, it can be inferred that the FALP derivative (2) with a hydrophilic head group modification induces mitochondrial and DNA damage as well as apoptosis more effectively than the one (7) with a hydrophobic modification.
Flow cytometric analysis of MitoSOX. A2780cis cells were seeded in 6-well plate at a concentration of 6 × 10^4 cells/mL and incubated overnight. […] The cells were then re-suspended in PBS with 0.5% BSA to reach 10^6 cells/mL and analyzed with BD Accuri C6 flow cytometer using FL-2 channel, and data were processed with FlowJo v10.

[4] = GFAAS analysis of Log P values (H2O:octanol); format: physicochemical; conditions: H2O:octanol 1:1, Pt content of each phase by GFAAS; whole compound
Procedure: The samples were first dissolved with DMSO to create 200 µM stocks. From these stocks, 50 µL was added to a H2O:Octanol mixture with a 1:1 volume ratio. This mixture was vortexed for 5 min and subsequently centrifuged for 3 min at 3000 rpm. Following centrifugation, the H2O and octanol layers were isolated for analysis. The Pt content in each phase was quantified using GFAAS to calculate the Log P value.

A2780cis cells [5] = test: GFAAS analysis of cellular platinum contents; format: cell-based, human; conditions: [Pt] = 1 μM, 24 h
Source text: (§5) Cell entry and mitochondrial accumulation of FALP derivatives with head groups of different hydrophobicities. Our next objective was to gain a more detailed understanding of how modifications to the head group of FALPs affect their anticancer activities through hydrophobicity. Cellular uptake is widely recognized as a critical factor in the activity of metallodrugs. The influence of hydrophobicity on the cellular uptake of therapeutic molecules has been widely acknowledged, with an increase in hydrophobicity typically promoting cell entry. To this end, we conducted a graphite furnace atomic absorption spectroscopic (GFAAS) analysis of the cellular uptake for FALPs with various head group modifications, including 2 and 7. […] We previously discovered that mitochondria play significant roles in the mechanism of action of FALPs, so we further investigated how the hydrophobicity of the head group modifications affects the mitochondrial accumulation of FALPs. […] In summary, the introduction of a hydrophilic head group in FALPs promotes cell entry and mitochondrial accumulation.
GFAAS analysis of cellular platinum contents in A2780cis cells. […] The remaining live cells were harvested via trypsinization and counted. […] The Pt contents in the cells were analyzed via GFAAS. […]

[6] = system: mitochondria of A2780cis cells; test: Measurement of mitochondrial platinum contents; format: cell-based, human; conditions: [Pt] = 1 μM, 24 h, isolated mitochondria, GFAAS
Source text: as §5
Measurements of mitochondrial platinum contents in A2780cis cells. […] Next, the wells were washed with PBS (1 mL) and harvested via trypsinization (1 mL) and counted. […] Next, the fractions were diluted 4× in water and the platinum content was analyzed using GFAAS. […]

A2780cis cells [7] = test: Flow cytometric analysis of apoptosis (Annexin V/PI); format: cell-based, human; conditions: [Pt] = 0.5 μM, 48 h
Procedure: as §4
Flow cytometric analysis of apoptosis. A2780cis cells were seeded in a 6-well plate at a concentration of 3 × 10^5 cells/well. Cells were then incubated at 37 °C 5% CO2 for 24 h. […] Both live and dead cells were collected, resuspended in 1mL PBS, and counted. […] Cells were then analyzed with FL-1 and FL-3 channels on a BD Accuri C6 flow cytometer and data were processed with FlowJo.

A2780cis cells [8] = test: LIVE/DEAD cell viability imaging assay; format: cell-based, human; conditions: [Pt] = 1 μM, 24 h
Procedure: LIVE/DEAD cell viability assays. […] Before the assay, the cells were washed with 1 mL PBS and 1 mL dye-free RPMI to remove serum esterase activity that is generally present in serum-supplemented growth media. A 100 μL volume of LIVE/DEAD working solution (formed by mixing 2 µM of calcein AM and 2 μM ethidium homodimer-1 in PBS) was carefully added to the disk, which was then incubated at r.t. for 30 min. Images were acquired using an Olympus IX70 inverted epifluorescence microscope equipped with a digital CCD camera (QImaging, Surrey, BC, Canada). Images were processed, and intensities were quantified with ImageJ software (NIH).

| SMILES | IC50 [1] [µM] | IC50 [2] [µM] | MitoSOX (mitochondrial ROS, flow cytometry) [3] | Log P determined via GFAAS [4] | Cellular uptake (cellular Pt content) (A2780cis cells [5]) [pmol Pt/million cells] | Mitochondrial Pt content [6] [pmol Pt/million cells] | Apoptosis, Annexin V/PI plot, upper right quadrant (late stages of apoptosis) (A2780cis cells [7]) [%] | Live/dead cell imaging result (A2780cis cells [8]) |
| --- | --- | --- | --- | --- | --- | --- | --- | --- |
| N.N.[Cl][Pt][Cl] [Cisplatin, cisplatin, reference compound] | 109 ± 13.5 | 92 ± 8 | insignificant change | – | – | – | – | – |
| CCCCCCCCCCCCCCCCNC(=O)[O][Pt]([Cl])([Cl])[O]C(=O)CCC(=O)O.N.N [Compound 1] | 1 ± 0.06 | 6.3 ± 0.4 | – | – | – | – | – | – |
| CCCCCCCCCCCCCCCCNC(=O)[O][Pt]([NH2])([NH2])([Cl])([Cl])[O]C(=O)CCC(=O)NCCOCCO [Compound 2] | 0.3 ± 0.06 | 0.76 ± 0.03 | – | 1.97 | 496.6 ± 16.09 | 31.7 ± 5.1 | 23.3 | effectively eliminated all drug-resistant A2780cis ovarian cancer cells |
| CCCCCCCCCCCCCCCCNC(=O)[O][Pt]([NH2])([NH2])([Cl])([Cl])[O]C(=O)CCC(=O)NCCOC [Compound 3] | 0.7 ± 0.04 | 1.9 ± 0.3 | – | – | – | – | – | – |
| CCCCCCCCCCCCCCCCNC(=O)[O][Pt]([NH2])([NH2])([Cl])([Cl])[O]C(=O)CCC(=O)NCC#N [Compound 4] | 0.41 ± 0.05 | 1.63 ± 0.12 | – | – | – | – | – | – |
| CCCCCCCCCCCCCCCCNC(=O)[O][Pt]([NH2])([NH2])([Cl])([Cl])[O]C(=O)CCC(=O)NCC(=O)OCC [Compound 5] | 0.39 ± 0.08 | 5.22 ± 1.03 | – | – | – | – | – | – |
| CCCCCCCCCCCCCCCCNC(=O)[O][Pt]([NH2])([NH2])([Cl])([Cl])[O]C(=O)CCC(=O)NCCC [Compound 6] | 1.12 ± 0.07 | 1.5 ± 0.4 | – | – | – | – | – | – |
| CCCCCCCCCCCCCCCCNC(=O)[O][Pt]([NH2])([NH2])([Cl])([Cl])[O]C(=O)CCC(=O)NCCCCCC [Compound 7] | 3.75 ± 0.47 | 7.05 ± 0.8 | – | 2.57 | 60.03 ± 8.01 | 11.72 ± 2.76 | 3.58 | ineffective |
| CCCCCCCCCCCCCCCCNC(=O)[O][Pt]([NH2])([NH2])([Cl])([Cl])[O]C(=O)CCC(=O)NC12CC3CC(CC(C3)C1)C2 [Compound 8] | 5.07 ± 0.71 | 6.09 ± 0.3 | – | – | – | – | – | – |
| CCCCCCCCCCCCCCCCNC(=O)CCC(=O)[O][Pt]([NH2])([NH2])([Cl])([Cl])[O]C(=O)NCC(=O)OCC [Compound 9] | 0.4 ± 0.01 | 1.42 ± 0.07 | – | – | – | – | – | – |
